{"source": "patent US20020022622A1", "about": "“Thiazole, imidazole and oxazole compounds and treatments of disorders associated with protein aging” (priority 2000, published 2002)", "origin": "cited, not measured here", "key": {"red blood cells": {"system": "red blood cells", "details": "in vivo"}, "[1]": {"system": "aortic wall protein cross-linking", "details": "diabetic rats"}, "[2]": {"system": "glomerular basement membrane thickness", "details": "streptozotocin-diabetic rat model"}, "[3]": {"system": "immunoglobulin trapping in the kidney", "details": "in vivo"}}}
{"smiles": "N=C(N)NN", "note": "[aminoguanidine]", "values": [{"measurement": "diabetes-induced changes in the deformability of red blood cells", "setting": "red blood cells", "value": "prevent"}, {"measurement": "aortic wall protein cross-linking", "setting": "[1]", "value": "diminishes"}, {"measurement": "increased glomerular basement membrane thickness", "setting": "[2]", "value": "prevented"}, {"measurement": "immunoglobulin trapping in the kidney", "setting": "[3]", "value": "reduction"}]}
